# From PubChem BioAssay AID2060900 (Molecular Pharmacology Branch, DTP, NCI, 2025)
# Test system: 521955-158-R2-J5-PDC complex spheroids, viability
# Test: Anticancer human tumor 521955-158-R2-J5-PDC patient-derived pancreatic carcinoma cell line growth inhibition [RAS]
# Details: for IC50: curve of first compound; for viability, T/C: stronger effect = lower value
# Outline: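 Tumour cells grown as complex spheroids with HUVEC endothelial cells and mesenchymal stem cells, treated with RAS pathway inhibitor combinations. Each agent spans half-log steps from near clinical Cmax, or 10 microM where Cmax is unknown.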
# 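Also: compound exposure lasted seven days before the viability read.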
# 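For viability, T/C in this document: spheroids also contain HUVEC endothelial cells and mesenchymal stem cells as stroma.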
smiles,measurement,setting,value
C=CC(=O)N1CCN(c2nc(OCC3CCCN3C)nc3c(F)c(-c4nc(N)cc(C)c4C(F)(F)F)c(Cl)cc23)C(C)C1 (centres undefined) + CCn1c(-c2cccnc2C(C)OC)c2c3cc(ccc31)N1CCOC(CC(NC(=O)C(C(C)C)N(C)C(=O)C3(F)CCN(C(=O)C#CC(C)(C)N(C)C)CC3)C(=O)N3CCCC(N3)C(=O)OCC(C)(C)C2)C1,IC50,second compound 0.000949 µM,> 1000 nM
same,IC50,second compound 0.003 µM,> 1000 nM
same,IC50,second compound 0.00949 µM,> 1000 nM
same,IC50,second compound 0.03 µM,> 1000 nM
same,IC50,second compound 0.0949 µM,> 1000 nM
same,IC50,second compound 0.3 µM,> 1000 nM
same,"viability, T/C","second compound 0.000949 µM, first compound 0.00316 µM",100%
same,"viability, T/C","second compound 0.000949 µM, first compound 0.01 µM",104%
same,"viability, T/C","second compound 0.000949 µM, first compound 0.0316 µM",104%
same,"viability, T/C","second compound 0.000949 µM, first compound 0.1 µM",103%
same,"viability, T/C","second compound 0.000949 µM, first compound 0.316 µM",99.1%
same,"viability, T/C","second compound 0.000949 µM, first compound 1 µM",92.7%
same,"viability, T/C","second compound 0.003 µM, first compound 0.00316 µM",93.2%
same,"viability, T/C","second compound 0.003 µM, first compound 0.01 µM",88.3%
same,"viability, T/C","second compound 0.003 µM, first compound 0.0316 µM",107%
same,"viability, T/C","second compound 0.003 µM, first compound 0.1 µM",113%
same,"viability, T/C","second compound 0.003 µM, first compound 0.316 µM",86.5%
same,"viability, T/C","second compound 0.003 µM, first compound 1 µM",94.7%
same,"viability, T/C","second compound 0.00949 µM, first compound 0.00316 µM",97.7%
same,"viability, T/C","second compound 0.00949 µM, first compound 0.01 µM",111%
same,"viability, T/C","second compound 0.00949 µM, first compound 0.0316 µM",109%
same,"viability, T/C","second compound 0.00949 µM, first compound 0.1 µM",115%
same,"viability, T/C","second compound 0.00949 µM, first compound 0.316 µM",97.9%
same,"viability, T/C","second compound 0.00949 µM, first compound 1 µM",97.7%
same,"viability, T/C","second compound 0.03 µM, first compound 0.00316 µM",99.3%
same,"viability, T/C","second compound 0.03 µM, first compound 0.01 µM",92.8%
same,"viability, T/C","second compound 0.03 µM, first compound 0.0316 µM",97.7%
same,"viability, T/C","second compound 0.03 µM, first compound 0.1 µM",95.8%
same,"viability, T/C","second compound 0.03 µM, first compound 0.316 µM",95.2%
same,"viability, T/C","second compound 0.03 µM, first compound 1 µM",91.9%
same,"viability, T/C","second compound 0.0949 µM, first compound 0.00316 µM",88.5%
same,"viability, T/C","second compound 0.0949 µM, first compound 0.01 µM",86.8%
same,"viability, T/C","second compound 0.0949 µM, first compound 0.0316 µM",104%
same,"viability, T/C","second compound 0.0949 µM, first compound 0.1 µM",96.4%
same,"viability, T/C","second compound 0.0949 µM, first compound 0.316 µM",98.1%
same,"viability, T/C","second compound 0.0949 µM, first compound 1 µM",74.4%
same,"viability, T/C","second compound 0.3 µM, first compound 0.00316 µM",80%
same,"viability, T/C","second compound 0.3 µM, first compound 0.01 µM",78.2%
same,"viability, T/C","second compound 0.3 µM, first compound 0.0316 µM",90.1%
same,"viability, T/C","second compound 0.3 µM, first compound 0.1 µM",69.1%
same,"viability, T/C","second compound 0.3 µM, first compound 0.316 µM",89.4%
same,"viability, T/C","second compound 0.3 µM, first compound 1 µM",79.7%
Nc1ccn(C2OC(CO)C(O)C2(F)F)c(=O)n1 (centres undefined) + C=CC(=O)N1CCN(c2nc(OCC3CCCN3C)nc3c(F)c(-c4nc(N)cc(C)c4C(F)(F)F)c(Cl)cc23)C(C)C1,IC50,second compound 0.00316 µM,136 nM
same,IC50,second compound 0.01 µM,225 nM
same,IC50,second compound 0.0316 µM,273 nM
same,IC50,second compound 0.1 µM,144 nM
same,IC50,second compound 0.316 µM,258 nM
same,IC50,second compound 1 µM,233 nM
same,"viability, T/C","second compound 0.00316 µM, first compound 0.00316 µM",94.2%
same,"viability, T/C","second compound 0.00316 µM, first compound 0.01 µM",88.7%
same,"viability, T/C","second compound 0.00316 µM, first compound 0.0316 µM",65%
same,"viability, T/C","second compound 0.00316 µM, first compound 0.1 µM",59%
same,"viability, T/C","second compound 0.00316 µM, first compound 0.316 µM",36.6%
same,"viability, T/C","second compound 0.00316 µM, first compound 1 µM",12.9%
same,"viability, T/C","second compound 0.01 µM, first compound 0.00316 µM",94.2%
same,"viability, T/C","second compound 0.01 µM, first compound 0.01 µM",89%
same,"viability, T/C","second compound 0.01 µM, first compound 0.0316 µM",75.5%
same,"viability, T/C","second compound 0.01 µM, first compound 0.1 µM",73.3%
same,"viability, T/C","second compound 0.01 µM, first compound 0.316 µM",39.8%
same,"viability, T/C","second compound 0.01 µM, first compound 1 µM",15.3%
same,"viability, T/C","second compound 0.0316 µM, first compound 0.00316 µM",93.2%
same,"viability, T/C","second compound 0.0316 µM, first compound 0.01 µM",93.8%
same,"viability, T/C","second compound 0.0316 µM, first compound 0.0316 µM",72.4%
same,"viability, T/C","second compound 0.0316 µM, first compound 0.1 µM",67%
same,"viability, T/C","second compound 0.0316 µM, first compound 0.316 µM",52.7%
same,"viability, T/C","second compound 0.0316 µM, first compound 1 µM",13%
same,"viability, T/C","second compound 0.1 µM, first compound 0.00316 µM",119%
same,"viability, T/C","second compound 0.1 µM, first compound 0.01 µM",88.6%
same,"viability, T/C","second compound 0.1 µM, first compound 0.0316 µM",72.4%
same,"viability, T/C","second compound 0.1 µM, first compound 0.1 µM",50.5%
same,"viability, T/C","second compound 0.1 µM, first compound 0.316 µM",51.5%
same,"viability, T/C","second compound 0.1 µM, first compound 1 µM",11.9%
same,"viability, T/C","second compound 0.316 µM, first compound 0.00316 µM",103%
same,"viability, T/C","second compound 0.316 µM, first compound 0.01 µM",93.4%
same,"viability, T/C","second compound 0.316 µM, first compound 0.0316 µM",77.1%
same,"viability, T/C","second compound 0.316 µM, first compound 0.1 µM",70.1%
same,"viability, T/C","second compound 0.316 µM, first compound 0.316 µM",49.6%
same,"viability, T/C","second compound 0.316 µM, first compound 1 µM",11.7%
same,"viability, T/C","second compound 1 µM, first compound 0.00316 µM",106%
same,"viability, T/C","second compound 1 µM, first compound 0.01 µM",100%
same,"viability, T/C","second compound 1 µM, first compound 0.0316 µM",74.4%
same,"viability, T/C","second compound 1 µM, first compound 0.1 µM",63%
same,"viability, T/C","second compound 1 µM, first compound 0.316 µM",54.8%
same,"viability, T/C","second compound 1 µM, first compound 1 µM",13%
